The conditions of data set [1]: for Glass transition temperature: DSC; for Normal melting temperature: Crystal 1, DTA.
Data set [2] is described as follows: Molar enthalpy of transition or fusion. The conditions noted are these: Crystal 1; DSC.

Here are results for six compounds from the NIST ThermoML archive (doi:10.1016/j.jct.2018.06.014).

Numbers after ± are expanded uncertainties.

As for `CCCC[N+]1(C)CCCCC1.O=S(=O)([N-]S(=O)(=O)C(F)(F)F)C(F)(F)F`, in data set [1], the Glass transition temperature was -72.00 ± 2 °C.

For the compound `CCN(C)CC.CS(=O)(=O)O` [diethylmethylammonium methanesulfonate], the Normal melting temperature in data set [1] came out at 39.00 ± 2 °C. In addition, the “Molar enthalpy of transition or fusion” value in data set [2] turned out to be 3.35 ± 0.478 kcal/mol.

Regarding `CCCC[N+]1(C)CCCCC1.O=S(=O)([O-])C(F)(F)F` [1-butyl-1-methylpiperidinium trifluoromethanesulfonate], the Normal melting temperature in data set [1] came to 36.00 ± 2 °C. Moreover, the “Molar enthalpy of transition or fusion” value in data set [2] was 5.5 ± 0.478 kcal/mol.

For `COP(=O)([O-])OC.Cn1cc[n+](C)c1` [1,3-dimethylimidazolium dimethylphosphate], the Glass transition temperature in data set [1] was -63.00 ± 2 °C.

With `CCCCn1cc[n+](C)c1.O=S(=O)([O-])C(F)(F)F` [1-butyl-3-methylimidazolium trifluoromethanesulfonate], the Normal melting temperature in data set [1] is 18.00 ± 2 °C. Further, the “Molar enthalpy of transition or fusion” value in data set [2] was 6.21 ± 0.717 kcal/mol.

As to `CC[NH+](C)CC.O=S(=O)([O-])C(F)(F)F` [diethylmethylammonium trifluoromethanesulfonate], the Normal melting temperature in data set [1] is -5.00 ± 2 °C. Moreover, the “Molar enthalpy of transition or fusion” value in data set [2] turned out to be 4.06 ± 0.478 kcal/mol.
